Patent publication US9920061B2, “Imidazo[1,5-A]pyrimidinyl carboxamide compounds and their use in the treatment of medical disorders” (Lysosomal Therapeutics Inc., priority 2016, dated 2018)
≈ marks a conversion by molar mass, not a printed value. Like-named read-outs stand apart in the source and are kept apart here.

Tests used:
[1] = Compound solubility in water; type: physicochemical
[2] = biological target: T1, glucocerebrosidase (Gcase) (Homo sapiens, UniProt P04062); assay: Glucocerebrosidase (Gcase) activation assay, 4-methylumbelliferyl-beta-D-glucopyranoside substrate, with saposin C; type: biochemical
T1 sequence (P04062 40-536): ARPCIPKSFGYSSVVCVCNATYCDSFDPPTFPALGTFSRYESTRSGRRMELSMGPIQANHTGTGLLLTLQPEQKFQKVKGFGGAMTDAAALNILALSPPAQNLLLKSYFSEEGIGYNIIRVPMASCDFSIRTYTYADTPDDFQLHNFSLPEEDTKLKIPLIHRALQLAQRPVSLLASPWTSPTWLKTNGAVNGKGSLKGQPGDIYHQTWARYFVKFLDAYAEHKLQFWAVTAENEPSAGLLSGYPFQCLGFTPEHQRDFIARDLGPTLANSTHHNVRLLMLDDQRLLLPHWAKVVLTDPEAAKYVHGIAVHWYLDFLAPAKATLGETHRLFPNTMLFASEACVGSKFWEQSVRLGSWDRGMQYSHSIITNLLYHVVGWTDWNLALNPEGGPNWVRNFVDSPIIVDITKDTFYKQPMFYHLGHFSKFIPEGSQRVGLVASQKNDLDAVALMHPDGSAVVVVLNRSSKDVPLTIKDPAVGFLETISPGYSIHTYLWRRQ
How it was run: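 Compounds tested at 1.0 and 0.1 μM, then in 8-point 3-fold curves, were pre-incubated 30 min at room temperature with 10 nM GCase plus 100 nM saposin C in PS/triton micelles, pH 4.7. Reaction with substrate (2 mM in micelles before mixing) ran 15 min; stopped at pH 12.5, read at ex 365/em 440 nm.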

[3] = 0.1 μM test compound, read-out: Percent Gcase Activation 0.1 μM Test Compound
[4] = 1 μM test compound, read-out: Percent Gcase Activation 1 μM Test Compound
[5] = test compound at 0.1 μM, read-out: Percent Gcase Activation, 0.1 μM Test Compound
[6] = test compound at 1.0 μM, read-out: Percent Gcase Activation, 1 μM Test Compound

| SMILES | solubility [1] [µg/mL] | activation at 0.1 µM [2, 3] [%] | activation at 1 µM [2, 4] [%] | solubility ([1]; in water) [µg/mL] | activation at 0.1 µM [2, 5] [%] | activation at 1 µM [2, 6] [%] |
| --- | --- | --- | --- | --- | --- | --- |
| COc1cccc(-c2cc(C)n3cnc(C(=O)NC(C)(C)C4CC4)c3n2)n1 [III-146] | 0.9 (≈ 2.46 µM) | > 20 | > 60 |  |  |  |
| C[C@H](NC(=O)c1ncn2cc(-c3ccc(F)cc3)cnc12)C1CC1 [III-37] | 2.2 (≈ 6.78 µM) | < 10 | < 30 |  |  |  |
| Cc1cc(N2CCCC(F)(F)C2)nc2c(C(=O)NC(C3CC3)C(F)(F)F)ncn12 (stereo not drawn) [III-138] | 17.2 (≈ 41.2 µM) | > 20 | > 60 |  |  |  |
| CNc1cc(C)nc2c(C(=O)NC(c3ccc(F)cc3)C(F)(F)F)ncn12 (stereo not drawn) [III-18] | 1.7 (≈ 4.46 µM) | > 20 | > 60 |  |  |  |
| Cc1cc(-c2cccc(C#N)c2)nc2c(C(=O)NC(C3CC3)C(F)(F)F)ncn12 (stereo not drawn) [III-152] | 3.8 (≈ 9.51 µM) | > 20 | > 60 |  |  |  |
| Cc1cc(-c2ccnn2C)nc2c(C(=O)NC(C)(C)C3CC3)ncn12 [III-69] | 8.5 (≈ 25.1 µM) | < 10 | < 30 |  |  |  |
| Cc1cc(C2CCCOC2)nc2c(C(=O)NC(C)(C)C3CC3)ncn12 (stereo not drawn) [III-78] | 23.2 (≈ 67.7 µM) | < 10 | < 30 |  |  |  |
| Cc1cc(-c2cccc3ncsc23)nc2c(C(=O)NC(C3CC3)C(F)(F)F)ncn12 (stereo not drawn) [IV-48] |  |  |  | 0.4 (≈ 0.927 µM) | 10 to 20 | > 60 |
| COc1cc(C)n2cnc(C(=O)NC(c3ccc(F)cc3)C(F)(F)F)c2n1 (stereo not drawn) [III-19] | 8.7 (≈ 22.8 µM) | 10 to 20 | > 60 |  |  |  |
| C#Cc1cccc([C@H](NC(=O)c2ncn3c(C)cc(C)nc23)C(F)(F)F)c1 [III-5] | 5.9 (≈ 15.8 µM) | > 20 | > 60 |  |  |  |
| Cc1cc(-c2cccnc2)nc2c(C(=O)NC(C)(C)C)ncn12 [III-89] | 24.5 (≈ 79.2 µM) | < 10 | < 30 |  |  |  |
| Cc1cc(-n2ccc(Cl)n2)nc2c(C(=O)NC(C3CC3)C(F)(F)F)ncn12 (stereo not drawn) [III-143] | 4.2 (≈ 10.5 µM) | 10 to 20 | > 60 |  |  |  |
| COCc1cc(C)nc2c(C(=O)NC(c3ccc(F)cc3)C(F)(F)F)ncn12 (stereo not drawn) [III-23] | 10.9 (≈ 27.5 µM) | > 20 | > 60 |  |  |  |
| COc1cccc(-c2cc(C)n3cnc(C(=O)N[C@@H](C)C4CC4)c3n2)n1 [III-98] | 5.2 (≈ 14.8 µM) | 10 to 20 | > 60 |  |  |  |
| COc1cc(F)cc(-c2cc(C)n3cnc(C(=O)N[C@@H](C)C(F)(F)F)c3n2)c1 [IV-59] |  |  |  | 2.2 (≈ 5.55 µM) | > 20 | > 60 |
| C#Cc1cccc([C@@H](NC(=O)c2ncn3c(C)cc(C)nc23)C(F)(F)F)c1 [III-4] | 6.1 (≈ 16.4 µM) | > 20 | > 60 |  |  |  |
| COc1cccc(-c2cc(C)n3cnc(C(=O)NC(C)(C)C(F)(F)F)c3n2)c1 [III-184] | 4.3 (≈ 11 µM) | > 20 | > 60 |  |  |  |
| Cc1cc(-n2ccc(Cl)n2)nc2c(C(=O)NC(C)(C)C3CC3)ncn12 [III-142] | 14.9 (≈ 41.5 µM) | < 10 | < 30 |  |  |  |
| CNc1cc(C)n2cnc(C(=O)NC(c3ccc(F)cc3)C(F)(F)F)c2n1 (stereo not drawn) [III-17] | 0.9 (≈ 2.36 µM) | > 20 | > 60 |  |  |  |
| Cc1cc(-c2ccns2)nc2c(C(=O)NC(C3CC3)C(F)(F)F)ncn12 (stereo not drawn) [III-141] | 18 (≈ 47.2 µM) | > 20 | > 60 |  |  |  |
| Cc1cc(N2CCCC(F)(F)C2)nc2c(C(=O)NC(C)(C)C3CC3)ncn12 [III-92] | 9.6 (≈ 25.4 µM) | 10 to 20 | > 60 |  |  |  |

| SMILES | solubility [1] [µg/mL] | activation at 0.1 µM [2, 3] [%] | activation at 1 µM [2, 4] [%] | solubility ([1]; in water) [µg/mL] | activation at 0.1 µM [2, 5] [%] | activation at 1 µM [2, 6] [%] |
| --- | --- | --- | --- | --- | --- | --- |
| COc1ccc(F)cc1-c1cc(C)n2cnc(C(=O)NC(C3CC3)C(F)(F)F)c2n1 (stereo not drawn) [IV-71] |  |  |  | 1.5 (≈ 3.55 µM) | > 20 | > 60 |
| COc1ccnc(-c2cc(C)n3cnc(C(=O)NC(C)C4CC4)c3n2)c1 (stereo not drawn) [III-100] | 7.2 (≈ 20.5 µM) | < 10 | 30 to 60 |  |  |  |
| Cc1cc(-c2ccns2)nc2c(C(=O)N[C@H](C3CC3)C(F)(F)F)ncn12 [IV-7] |  |  |  | 9.9 (≈ 26 µM) | 10 to 20 | > 60 |
| C#CC(C)(C)NC(=O)c1ncn2c(C)cc(-c3cc(F)cc(OC)c3)nc12 [III-187] | 0.9 (≈ 2.46 µM) | > 20 | > 60 |  |  |  |
| Cc1cc(-c2ccc3c(c2)OCO3)nc2c(C(=O)N[C@H](C)C3CC3)ncn12 [IV-29] |  |  |  | 1.1 (≈ 3.02 µM) | > 20 | > 60 |
| COc1cc(C)nc2c(C(=O)NC(c3ccc(F)cc3)C(F)(F)F)ncn12 (stereo not drawn) [III-20] | 6.9 (≈ 18 µM) | < 10 | > 60 |  |  |  |
| Cc1cc(-c2cccc(C#N)c2F)nc2c(C(=O)NC(C3CC3)C(F)(F)F)ncn12 (stereo not drawn) [IV-36] |  |  |  | 0.5 (≈ 1.2 µM) | > 20 | > 60 |
| COCCOc1cccc(-c2cc(C)n3cnc(C(=O)N[C@@H](C)C4CC4)c3n2)c1 [III-101] | 16 (≈ 40.6 µM) | 10 to 20 | > 60 |  |  |  |
| Cc1cc(N2CCCC(F)(F)C2)nc2c(C(=O)N[C@@H](C)C3CC3)ncn12 [III-114] | 26 (≈ 71.5 µM) | 10 to 20 | > 60 |  |  |  |
| COc1ccc(F)c(-c2cc(C)n3cnc(C(=O)NC(C)(C)C)c3n2)c1 [IV-103] |  |  |  | 0.7 (≈ 1.96 µM) | 10 to 20 | > 60 |
| Cc1cc(-c2cccc(C(N)=O)c2)nc2c(C(=O)NC(C3CC3)C(F)(F)F)ncn12 (stereo not drawn) [IV-112] |  |  |  | 1.1 (≈ 2.64 µM) | 10 to 20 | > 60 |
| COCCOc1cc(C)n2cnc(C(=O)N[C@@H](C)C3CC3)c2n1 [III-128] | 34.1 (≈ 107 µM) | < 10 | < 30 |  |  |  |
| Cc1cc(C)n2cnc(C(=O)NC(C)(C)C3CC3)c2n1 [III-8] | 25.2 (≈ 92.5 µM) | < 10 | < 30 |  |  |  |
| COc1cccc(-c2cc(C)n3cnc(C(=O)N[C@H](C)C4CC4)c3n2)c1 [IV-1] |  |  |  | 8.3 (≈ 23.7 µM) | 10 to 20 | > 60 |
| Cc1cc(-c2ccc(Cl)nc2)nc2c(C(=O)N[C@@H](C)C3CC3)ncn12 [III-75] | 4.9 (≈ 13.8 µM) | < 10 | 30 to 60 |  |  |  |
| COc1cc(F)cc(-c2cc(C)n3cnc(C(=O)NC(C4CC4)C(F)(F)F)c3n2)c1 (stereo not drawn) [III-170] | 0.1 (≈ 0.237 µM) | > 20 | > 60 |  |  |  |
| COc1cc(F)cc(-c2cc(C)n3cnc(C(=O)NC(C)C(F)(F)F)c3n2)c1 (stereo not drawn) [IV-57] |  |  |  | 1.2 (≈ 3.03 µM) | > 20 | > 60 |
| Cc1cc(-c2ccccn2)nc2c(C(=O)NC(C)C3CC3)ncn12 (stereo not drawn) [III-44] | 26 (≈ 80.9 µM) | < 10 | < 30 |  |  |  |
| Cc1cc(-c2cccc3ocnc23)nc2c(C(=O)NC(C3CC3)C(F)(F)F)ncn12 (stereo not drawn) [III-145] | 1.6 (≈ 3.85 µM) | > 20 | > 60 |  |  |  |
| COc1cccc(-c2cc(C)n3cnc(C(=O)NC(C)C4CC4)c3n2)c1 (stereo not drawn) [III-55] | 7.8 (≈ 22.3 µM) | > 20 | > 60 |  |  |  |
